SMILES strings stand for the structures. Calls of active or inactive are those of the source. No cut-off for these calls is given here.

Test [1] deals with Staphylococcus epidermidis. The test is described as follows: Antibacterial activity against oxacillin-sensitive Staphylococcus epidermidis ATCC 12228 assessed as reduction in number of viable biofilm associated bacteria in presence of dispersin B. The format is functional, organism-based.
Test [2] has as its system Staphylococcus epidermidis. Description: Antibacterial activity against oxacillin-sensitive Staphylococcus epidermidis ATCC 12228 at 0.25 ug/ml after 18 hrs. The format is functional, organism-based.

On to `Cn1nnnc1SCC1=C(C(=O)O)N2C(=O)[C@@H](NC(=O)[C@H](OC=O)c3ccccc3)[C@H]2SC1`, for which the result in test [1] and in test [2] was Active.

Values taken from ChEMBL document CHEMBL1155171, “Synergistic activity of dispersin B and cefamandole nafate in inhibition of staphylococcal biofilm growth on polyurethanes” (Antimicrob Agents Chemother, 2007).
